{"source": "patent US12473282B2", "about": "“Biphenyl fluorine double bond derivative, preparation method therefor, and pharmaceutical application thereof” (Abbisko Therapeutics Co., Ltd., priority 2020, dated 2025)", "key": {"[1]": {"target": "interaction between PD-1 and PD-L1 (Homo sapiens (Human), UniProt Q9NZQ7)", "sequence (Q9NZQ7 19-238)": "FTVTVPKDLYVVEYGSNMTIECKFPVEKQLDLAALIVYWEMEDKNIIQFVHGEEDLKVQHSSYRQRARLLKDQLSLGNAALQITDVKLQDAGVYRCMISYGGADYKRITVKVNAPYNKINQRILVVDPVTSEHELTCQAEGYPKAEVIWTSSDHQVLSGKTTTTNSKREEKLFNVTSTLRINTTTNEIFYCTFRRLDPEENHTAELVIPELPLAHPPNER", "assay": "PD1-PDL1 HTRF binding activity test (Cisbio PD-1/PD-L1 binding assay kit)", "method": "I. PD1-PDL1 HTRF Binding Activity Test\nThe effect of compounds of the examples of the present invention on the interaction between PD-1 and PD-L1 was determined by the PD-1/PD-L1 binding assay kit from Cisbio (#64ICP01PEG or 64ICP01PEH). The detailed experimental process was as follows: • 1. Pre-diluted compound solution, 4 μL of Tag1-PD-L1 and 4 μL of Tag2-PD1 were added to each well of a 384-well plate; • 2. After the mixture was incubated at room temperature for 15 min, 5 μL of anti-Tag1-Eu3+ antibody and 5 μL of anti-Tag2-XL665 antibody were then added; • 3. After incubated for 2 hrs at room temperature or overnight at 4° C., plates were read on Envision of Pelkin Elmer; and readings at 665 nm and 620 nm were recorded, and the ratio of the two readings was taken as a reading for each well; • 4. The reading of each well after compound treatment was compared with the reading of DMSO treated wells to obtain the percent inhibition of the compound; • 5. IC50 values of compounds and positive compounds of the examples of the present invention were determined by non-linear regression analysis of percent inhibition at different compound concentrations. II. Jurkat Reporter Gene Cellular Assay"}, "[2]": {"assay": "Jurkat reporter gene cellular assay", "assay_type": "cell-based", "details": "Homo sapiens; Jurkat/NF-κB-luc/PD1 + Raji-PD-L1 coculture, OKT3 1 μg/mL, 6 hrs, activation fold; read-out: Cell Activity EC50", "procedure,_shortened": "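Jurkat cells stably expressing human PD-1 and NF-κB-luciferase co-cultured with PD-L1-expressing Raji cells (5×10^4 each/well) under OKT3 (1 μg/mL final) with compound. Raji cells preincubated 20 min; luminescence read 6 h after Jurkat addition. EC50 from non-linear regression of fold activation over DMSO.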"}}, "data": [{"molecule": "COc1cc(/C(F)=C/c2cccc(-c3cccc(NC(=O)c4nc5c(n4C)CCN(CCC46CCC(C(=O)O)(CC4)C6)C5)c3Cl)c2Cl)ncc1CNC[C@@H]1CCC(=O)N1", "note": "[Example 34, (S,Z)-4-(2-(2-((2,2′-dichloro-3′-(2-fluoro-2-(4-methoxy-5-((((5-oxopyrrolidin-2-yl)methyl)amino)methyl)pyridin-2-yl)vinyl)-[1,1′-biphenyl]-3-yl)carbamoyl)-1-methyl-1,4,6,7-tetrahydro-5H-imidazo [4,5-c]pyridin-5-yl)ethyl)bicyclo[2.2.1]heptane-1-carboxylic acid]", "values": [{"measurement": "IC50", "setting": "[1]", "value": 0.000352, "unit": "µM"}, {"measurement": "EC50", "setting": "[2]", "value": 0.0804, "unit": "µM"}]}, {"molecule": "COc1cc(/C(F)=C/c2cccc(-c3cccc(NC(=O)c4nc5c(n4C)CCN(CCC46CCC(C(=O)O)(CC4)C6)C5)c3Cl)c2Cl)ncc1CN[C@@H]1CCOC[C@H]1O", "note": "[Example 35, 4-(2-(2-((2,2′-dichloro-3′-((Z)-2-fluoro-2-(5-((((3S,4R)-3-hydroxytetrahydro-2H-pyran-4-yl)amino)methyl)-4-methoxypyridin-2-yl)vinyl)-[1,1′-biphenyl]-3-yl)carbamoyl)-1-methyl-1,4,6,7-tetrahydro-5H-imidazo[4,5-c]pyridin-5-yl)ethyl)bicyclo[2.2.1]heptane-1-carboxylic acid]", "values": [{"measurement": "IC50", "setting": "[1]", "value": 0.000638, "unit": "µM"}, {"measurement": "EC50", "setting": "[2]", "value": 0.0931, "unit": "µM"}]}, {"molecule": "Cn1c(C(=O)Nc2cccc(-c3cccc(/C=C(\\F)c4cc(C5CC5)c(CN5CC(C)(O)C5)cn4)c3Cl)c2Cl)nc2c1CCN(CCC13CCC(C(=O)O)(CC1)C3)C2", "note": "[Example 36, (Z)-4-(2-(2-((2,2′-dichloro-3′-(2-(4-cyclopropyl-5-((3-hydroxy-3-methylazetidin-1-yl)methyl)pyridin-2-yl)-2-fluorovinyl)-[1,1′-biphenyl]-3-yl)carbamoyl)-1-methyl-1,4,6,7-tetrahydro-5H-imidazo[4,5-c]pyridin-5-yl)ethyl)bicyclo[2.2.1]heptane-1-carboxylic acid]", "values": [{"measurement": "IC50", "setting": "[1]", "value": 0.000306, "unit": "µM"}, {"measurement": "EC50", "setting": "[2]", "value": 3.13, "unit": "µM"}]}, {"molecule": "COc1cc(/C(F)=C/c2cccc(-c3cccc(NC(=O)c4nc5c(n4C)CCN(CCC46CCC(C(=O)O)(CC4)C6)C5)c3Cl)c2Cl)ncc1CN[C@H](CO)C(=O)O", "note": "[Example 37, (R,Z)-4-(2-(2-((3′-(2-(5-(((1-carboxy-2-hydroxyethyl)amino)methyl)-4-methoxypyridin-2-yl)-2-fluorovinyl)-2,2′-dichloro-[1,1′-biphenyl]-3-yl)carbamoyl)-1-methyl-1,4,6,7-tetrahydro-5H-imidazo[4,5-c]pyridin-5-yl)ethyl)bicyclo[2.2.1]heptane-1-carboxylic acid]", "values": [{"measurement": "IC50", "setting": "[1]", "value": 0.000202, "unit": "µM"}, {"measurement": "EC50", "setting": "[2]", "value": 0.178, "unit": "µM"}]}, {"molecule": "COc1cc(/C(F)=C/c2cccc(-c3cccc(NC(=O)c4nc5c(n4C)CCN(CCC46CCC(C(=O)O)(CC4)C6)C5)c3Cl)c2Cl)ncc1CNCC(F)F", "note": "[Example 38, (Z)-4-(2-(2-((2,2′-dichloro-3′-(2-(5-(((2,2-difluoroethyl)amino)methyl)-4-methoxypyridin-2-yl)-2-fluorovinyl)-[1,1′-biphenyl]-3-yl)carbamoyl)-1-methyl-1,4,6,7-tetrahydro-5H-imidazo[4,5-c]pyridin-5-yl)ethyl)bicyclo[2.2.1]heptane-1-carboxylic acid]", "values": [{"measurement": "IC50", "setting": "[1]", "value": 0.000332, "unit": "µM"}, {"measurement": "EC50", "setting": "[2]", "value": 0.977, "unit": "µM"}]}, {"molecule": "COc1cc(/C(F)=C/c2cccc(-c3cccc(NC(=O)c4nc5c(n4C)CCN(CCC46CCC(C(=O)O)(CC4)C6)C5)c3Cl)c2Cl)ncc1CN1CC[C@@H](O)C1", "note": "[Example 39, (R,Z)-4-(2-(2-((2,2′-dichloro-3′-(2-fluoro-2-(5-((3-hydroxypyrrolidin-1-yl)methyl)-4-methoxypyridin-2-yl)vinyl)-[1,1′-biphenyl]-3-yl)carbamoyl)-1-methyl-1,4,6,7-tetrahydro-5H-imidazo[4,5-c]pyridin-5-yl)ethyl)bicyclo[2.2.1]heptane-1-carboxylic acid]", "values": [{"measurement": "IC50", "setting": "[1]", "value": 0.000238, "unit": "µM"}, {"measurement": "EC50", "setting": "[2]", "value": 0.0647, "unit": "µM"}]}, {"molecule": "COc1cc(/C(F)=C/c2cccc(-c3cccc(NC(=O)c4nc5c(n4C)CCN(CCC46CCC(C(=O)O)(CC4)C6)C5)c3Cl)c2Cl)ncc1CN[C@H]1CC[C@@H](O)CC1", "note": "[Example 40, 4-(2-(2-((2,2′-dichloro-3′-((Z)-2-fluoro-2-(5-((((1S,4S)-4-hydroxycyclohexyl)amino)methyl)-4-methoxypyridin-2-yl)vinyl)-[1,1′-biphenyl]-3-yl)carbamoyl)-1-methyl-1,4,6,7-tetrahydro-5H-imidazo[4,5-c]pyridin-5-yl)ethyl)bicyclo[2.2.1]heptane-1-carboxylic acid]", "values": [{"measurement": "IC50", "setting": "[1]", "value": 0.00031, "unit": "µM"}, {"measurement": "EC50", "setting": "[2]", "value": 0.179, "unit": "µM"}]}, {"molecule": "COc1cc(/C(F)=C/c2cccc(-c3cccc(NC(=O)c4nc5c(n4C)CCN(CCC46CCC(C(=O)O)(CC4)C6)C5)c3Cl)c2Cl)ncc1CNC(C)C", "note": "[Example 41, (Z)-4-(2-(2-((2,2′-dichloro-3′-(2-fluoro-2-(5-((isopropylamino)methyl)-4-methoxypyridin-2-yl)vinyl)-[1,1′-biphenyl]-3-yl)carbamoyl)-l-methyl-1,4,6,7-tetrahydro-5H-imidazo[4,5-c]pyridin-5-yl)ethyl) bicyclo[2.2.1]heptane-1-carboxylic acid]", "values": [{"measurement": "IC50", "setting": "[1]", "value": 0.000249, "unit": "µM"}, {"measurement": "EC50", "setting": "[2]", "value": 0.0867, "unit": "µM"}]}, {"molecule": "COc1cc(/C(F)=C/c2cccc(-c3cccc(NC(=O)c4nc5c(n4C)CCN(CCC46CCC(C(=O)O)(CC4)C6)C5)c3Cl)c2Cl)ncc1CNC(C)(C)C", "note": "[Example 50, (Z)-4-(2-(2-((3′-(2-(5-((tert-butylamino)methyl)-4-methoxypyridin-2-yl)-2-fluorovinyl)-2,2′-dichloro-[1,1′-biphenyl]-3-yl)carbamoyl)-1-methyl-1,4,6,7-tetrahydro-5H-imidazo[4,5-c]pyridin-5-yl)ethyl) bicyclo[2.2.1]heptane-1-carboxylic acid]", "values": [{"measurement": "IC50", "setting": "[1]", "value": 0.000731, "unit": "µM"}, {"measurement": "EC50", "setting": "[2]", "value": 0.054, "unit": "µM"}]}, {"molecule": "COc1cc(/C(F)=C/c2cccc(-c3cccc(NC(=O)c4nc5c(n4C)CCN(CCC46CCC(C(=O)O)(CC4)C6)C5)c3Cl)c2Cl)ncc1CN1CC[C@H](O)C1", "note": "[Example 59, (S,Z)-4-(2-(2-((2,2′-dichloro-3′-(2-fluoro-2-(5-((3-hydroxypyrrolidin-1-yl)methyl)-4-methoxypyridin-2-yl)vinyl)-[1,1′-biphenyl]-3-yl)carbamoyl)-1-methyl-1,4,6,7-tetrahydro-5H-imidazo[4,5-c]pyridin-5-yl)ethyl)bicyclo[2.2.1]heptane-1-carboxylic acid]", "values": [{"measurement": "IC50", "setting": "[1]", "value": 0.000299, "unit": "µM"}, {"measurement": "EC50", "setting": "[2]", "value": 0.0475, "unit": "µM"}]}]}
